# Test results published in patent publication US12655171B2, “Compounds for activating invariant natural killer T-cells and methods of use in eliminating inflammatory senescent cells” (Deciduous Therapeutics, Inc., priority 2021, dated 2026).
# Legend:
# human iTCR = test: In vitro activation of human iTCR through Jurkat reporter cell line (JiNKT, GFP under NFkB promoter) with drug-loaded BWSTIM cells; type: cell-based; conditions: for EC50 of the dose response based on percentage GFP+ cells, compared to α-GalCer: BWSTIM loaded 4 hours, co-culture with JiNKT 18 to 24 hours, FIG. 1
# Description: In order to determine the human iTCR activation potential induced by the compounds described herein, a jurkat cell line (JiNKT) was transfected with the human iTCR, and GFP under the NFkB promoter (cell line licensed from the Medical University of Vienna). A BWS147 cell line (BWSTIM) was also transfected with CD80 and CD1d to act as the antigen-presenting cell.
# (§1) DCD molecules or α-GalCer were both dissolved in DMSO at a 5 mg/mL stock solution. BWSTIM cells were loaded with DCD molecules or α-GalCer at varying concentrations for 4 hours at 37° C. at a concentration of 20 k cells/well in 200 μL of media in a u-bottom 96 well dish. BWSTIM cells were washed 2× with media, then incubated with JiNKT cells at a concentration of 80 k cells/well in a u-bottom 96 well dish. Cells were co-cultured for 18 to 24 hours. The percentage of cells expressing high levels of GFP was measured through flow cytometry (after gating out the mCD45+ BWSTIM cells).
# A jurkat cell line (JiNKT) was transfected with the human iTCR, and GFP under the NFkB promoter. A BWS147 cell line (BWSTIM) was also transfected with CD80 and CD1d to act as the antigen-presenting cell. A mouse iNKT hybridoma cell line (DN3.2) was also used as the iNKT. […]
# as §1, with “GVK” for “DCD”, “compounds” for “DCD molecules or α-GalCer at varying concentrations”, “for” for “for 18 to”, “cytometry. 1 μg/mL of molecule GVK1a, GVK1b, GVK1c, or GVK1f was incubated with BWSTIM+JiNKT, and compared to α-GalCer.” for “cytometry (after gating out the mCD45+ BWSTIM cells).”
# primary human iNKT cells = test: Cytokine secretion of primary human iNKT cells co-cultured with drug-loaded BWSTIM cells; type: cell-based; conditions: BWSTIM loaded with 10 μg/mL
# Description: In order to determine the activation profile induced by the compounds described herein, primary human iNKT cells were co-cultured with drug-loaded BWSTIM cells.
# Day 0: PBMCs were isolated from human blood using the STEMCELL TECHNOLOGIES™ SepMate™ PBMC isolation system. iNKT cells were then selected using the Miltenyi NKT magnetic cell separation kit.
# Day 2: DCD molecules or α-GalCer were both dissolved in DMSO at a 5 mg/mL stock solution. BWSTIM cells were fixed with mitomycin C, then loaded with 10 μg/mL of DCD molecules or α-GalCer for 4 hours at 37° C. at a concentration of 20 k cells/well in 200 μL of media in a u-bottom 96 well dish. Cells were co-cultured with 80 k 6B11+ selected primary human iNKT cells.
# D4: Media was collected. Cytokines were measured using the Satorious 4Plex kit on the iQue3 cytometer.
# GVK molecules or α-GalCer were both dissolved in DMSO at a 5 mg/mL stock solution. BWSTIM cells were loaded with compounds for 4 hours at 37° C. at a concentration of 20 k cells/well in 200 μL of media in a u-bottom 96 well dish. Cells were co-cultured with 100 k 6B11+ selected primary human iNKT cells. Media was collected 2 days later. Cytokines were measured using the Satorious 4Plex kit on the iQue3 cytometer.
# serum IFNγ = test: In vivo serum IFNγ (ELISA) in C57BL/6J mice; conditions: 2 μg I.P.; twenty hours post-injection; FIG. 4A
# Description: In order to determine the expansion induced by the molecules described herein, molecules were injected into C57BL/6J mice. Serum IFNγ levels and the expansion of iNKT cells within splenocytes was measured 4 days post-IP injection.
# Eight weeks old C57BL/6J mice were injected (I.P.) with 2 μg of α-GalCer or DCD molecules. Molecules were either dissolved in DMSO at a 5 mg/mL stock solution, or formulated into liposomes through thin-film rehydration, then extrusion through 200 nm filters. Liposome-based formulations were constructed using soy phosphatidylcholine, cholesterol, and DCD or α-GalCer in a 2:1:0.15 ratio. Twenty hours post-injection, blood was collected from the tail to measure the level of serum IFNγ using an ELISA kit from Biolegend. Four days post-injection, the mice were sacrificed and the spleenocytes were isolated. The percentage of iNKT cells within the spleens was measured using flow cytometry, selecting for live cells and mouse CD1d-α-GalCer tetramer+ cells.
SMILES,"EC50 of the dose response based on percentage GFP+ cells, compared to α-GalCer (human iTCR)",other results
CCCCCCCCCCCCCC[C@@H](O)[C@@H](O)[C@H](COC1OC(CO)C(O)C(O)C1O)n1cc(CCCCCCN(CCCCCCC)CCCCCCC)nn1 (stereo partly shown) [DCD-104],lower EC50s compared to α-GalCer,IFNγ secretion compared to the no-compound control (primary human iNKT cells; FIG. 3A): significantly higher levels; IL6 secretion compared to the no-compound control (primary human iNKT cells; FIG. 3B): significantly higher levels; TNFα secretion compared to the no-compound control (primary human iNKT cells; FIG. 3C): significantly higher levels
CCCCCCCCCCCCCC[C@@H](O)[C@@H](O)[C@H](COC1OC(CO)C(O)C(O)C1O)NC(=O)CCCCCCCCCCC1COC1 (stereo partly shown) [DCD-118],lower EC50s compared to α-GalCer,
CCCCCCCCCCCCCC[C@@H](O)[C@@H](O)[C@H](COC1OC(CO)C(O)C(O)C1O)NC(=O)CCCCCCCCCOC1CCS(=O)(=O)CC1 (stereo partly shown) [DCD-138],lower EC50s compared to α-GalCer,
CCCCCCCCCCCCCC[C@@H](O)[C@@H](O)[C@H](COC1OC(CO)C(O)C(O)C1O)NC(=O)CCCCCCCCCCS(=O)(=O)C(C)C (stereo partly shown) [DCD-137],lower EC50s compared to α-GalCer,
CCCCCCCCCCCCCCCCCC[Si](C)(C)CCCCCCC(=O)N[C@@H](COC1OC(CO)C(O)C(O)C1O)[C@H](O)[C@H](O)CCCCCCCCCCCCCC (stereo partly shown) [DCD-152],,average serum IFNγ compared to α-GalCer (serum IFNγ): higher than the average serum IFNγ of C57BL/6J mice treated with α-GalCer
CCCCCCCCCCCCCCCCC[Si](C)(C)CCCCCCCC(=O)N[C@@H](COC1OC(CO)C(O)C(O)C1O)[C@H](O)[C@H](O)CCCCCCCCCCCCCC (stereo partly shown) [DCD-157],lower EC50s compared to α-GalCer,average serum IFNγ compared to α-GalCer (serum IFNγ): higher than the average serum IFNγ of C57BL/6J mice treated with α-GalCer
CCCCCCCCCCCCCC[C@@H](O)[C@@H](O)[C@H](COC1OC(CO)C(O)C(O)C1O)NC(=O)CCCCCCCCCCC1(C)COC1 (stereo partly shown) [DCD-119],lower EC50s compared to α-GalCer,
CCCCCCCCCCCCCC[C@@H](O)[C@@H](O)[C@H](COC1OC(CO)C(O)C(O)C1O)NC(=O)CCCCCCCCCCCCCCCCCCCCCCC12CC(F)(C1)C2 (stereo partly shown) [DCD-148],lower EC50s compared to α-GalCer,
CCCCCCCCCCCCCC[C@@H](O)[C@@H](O)[C@H](COC1OC(CO)C(O)C(O)C1O)NC(=O)CCCCCCCCCCN1CCS(=O)(=O)CC1 (stereo partly shown) [DCD-136],lower EC50s compared to α-GalCer,
CCCCCCCCCCCCCC[C@@H](O)[C@@H](O)[C@H](COC1OC(CO)C(O)C(O)C1O)NC(=O)CCCCCCCCCCC12C3C4C5C3C1C5C42 (stereo partly shown) [DCD-114],lower EC50s compared to α-GalCer,
CCCCCCCCCCCCCC[C@@H](O)[C@@H](O)[C@H](COC1OC(CO)C(O)C(O)C1O)NC(=O)CCCCCCCCCCCCCCCCCCCCCC1COC1 (stereo partly shown) [DCD-150],lower EC50s compared to α-GalCer,
CCCCCCCCCCCCCC[C@@H](O)[C@@H](O)[C@H](COC1OC(CO)C(O)C(O)C1O)NC(=O)CCCCCOCCCCC1CCOCC1 (stereo partly shown) [DCD-144],lower EC50s compared to α-GalCer,
CCCCCCCCCCCCCC[C@@H](O)[C@@H](O)[C@H](COC1OC(CO)C(O)C(O)C1O)NC(=O)CCCCCCCCCCC1CCS(=O)(=O)CC1 (stereo partly shown) [DCD-127],lower EC50s compared to α-GalCer,"% GFP+ (human iTCR; ranking among tested compounds, at the lowest concentration): highest % GFP+ at the lowest concentration"
CCCCCCCCCCCCCC[C@@H](O)[C@@H](O)[C@H](COC1OC(CO)C(O)C(O)C1O)NC(=O)CCCCCCCCCCC1CN(C(=O)OC(C)(C)C)C1 (stereo partly shown) [DCD-125],lower EC50s compared to α-GalCer,
CCCCCCCCCCCCCC[C@@H](O)[C@@H](O)[C@H](COC1OC(CO)C(O)C(O)C1O)NC(=O)CCCCCCCCCCC1CCN(C(=O)OC(C)(C)C)C1 (stereo partly shown) [DCD-128],lower EC50s compared to α-GalCer,
CCCCCCCCCCCCCC[C@@H](O)[C@@H](O)[C@H](COC1OC(CO)C(O)C(O)C1O)NC(=O)CCCCCCCCCCN1CCSCC1.Cl (stereo partly shown) [DCD-133],lower EC50s compared to α-GalCer,
CCCCCCCCCCCCCC[C@@H](O)[C@@H](O)[C@H](COC1OC(CO)C(O)C(O)C1O)NC(=O)CCCCCCCCCCCCCCCCCCCCCC12CC(F)(C1)C2 (stereo partly shown) [DCD-151],lower EC50s compared to α-GalCer,

# The next lines start with results.
"EC50 of the dose response based on percentage GFP+ cells, compared to α-GalCer (human iTCR)",SMILES,other results
lower EC50s compared to α-GalCer,CCCCCCCCCCCCCC[C@@H](O)[C@@H](O)[C@H](COC1OC(CO)C(O)C(O)C1O)NC(=O)CCCCCCCCCCCC12C3C4C5C3C1C5C42 (stereo partly shown) [DCD-103],
lower EC50s compared to α-GalCer,CCCCCCCCCCCCCC[C@@H](O)[C@@H](O)[C@H](COC1OC(CO)C(O)C(O)C1O)NC(=O)CCCCCCCCCCC1CCOC1 (stereo partly shown) [DCD-121],
lower EC50s compared to α-GalCer,CCCCCCCCCCCCCC[C@@H](O)[C@@H](O)[C@H](COC1OC(CO)C(O)C(O)C1O)NC(=O)CCCCCCOCCCC1CCOCC1 (stereo partly shown) [DCD-143],
lower EC50s compared to α-GalCer,CCCCCCCCCCCCCC[C@@H](O)[C@@H](O)[C@H](COC1OC(CO)C(O)C(O)C1O)NC(=O)CCCCCCCCCCC1CCOCC1 (stereo partly shown) [DCD-122],
lower EC50s compared to α-GalCer,CCCCCCCCCCCCCC[C@@H](O)[C@@H](O)[C@H](COC1OC(CO)C(O)C(O)C1O)NC(=O)CCCCCCCCCCN1CCOCC1.Cl (stereo partly shown) [DCD-130],
lower EC50s compared to α-GalCer,CCCCCCCCCCCCCC[C@@H](O)[C@@H](O)[C@H](COC1OC(CO)C(O)C(O)C1O)NC(=O)CCCCCCCCCCCCCCCCCCCCCCCC12CC(F)(C1)C2 (stereo partly shown) [DCD-155],average serum IFNγ compared to α-GalCer (serum IFNγ): higher than the average serum IFNγ of C57BL/6J mice treated with α-GalCer
lower EC50s compared to α-GalCer,CCCCCCCCCCCCCC[C@@H](O)[C@@H](O)[C@H](COC1OC(CO)C(O)C(O)C1O)NC(=O)CCCCCCCCCCCCCCCCCCCCCCC1COC1 (stereo partly shown) [DCD-149],
lower EC50s compared to α-GalCer,CCCCCCCCCCCCCC[C@@H](O)[C@@H](O)[C@H](COC1OC(CO)C(O)C(O)C1O)NC(=O)CCCCCCCOCCC1CCOCC1 (stereo partly shown) [DCD-140],
lower EC50s compared to α-GalCer,CCCCCCCCCCCCCC[C@@H](O)[C@@H](O)[C@H](COC1OC(CO)C(O)C(O)C1O)NC(=O)CCCCCCCCCOC1CCOCC1 (stereo partly shown) [DCD-139],
lower EC50s compared to α-GalCer,CCCCCCCCCCCCCC[C@@H](O)[C@@H](O)[C@H](COC1OC(CO)C(O)C(O)C1O)NC(=O)CCCCCCCCOCC1CCOCC1 (stereo partly shown) [DCD-141],
lower EC50s compared to α-GalCer,CCCCCCCCCCCCCC[C@@H](O)[C@@H](O)[C@H](COC1OC(CO)C(O)C(O)C1O)NC(=O)CCCCCCCCCCCC12CC(F)(C1)C2 (stereo partly shown) [DCD-113],
